Laboratory results taken from patent US20250188069A1, “COMPOUNDS AND METHODS FOR DEGRADING CASEIN KINASE 1 ALPHA” (PIN THERAPEUTICS, INC., priority 2022, published 2025).
Where a name gives a salt, the structure may show the parent alone. Read-outs that look alike come from different tables or passages of the source.

Tests used:
MV-4-11 cells = experiment: AML cell viability assay (RealTime-Glo); format: cell-based; details: Homo sapiens, read-out: Cell viability classification
CK1α = CK1α (Homo sapiens, UniProt P48729+Q96SW2); experiment: CK1α degradation, flow cytometry in MV4-11 cells; format: cell-based; design: CK1α levels were determined in MV-4-11 cells using Jess (Protein Simple); host or cells: MV-4-11; details: % reduction of CK1α compared to DMSO, MV4-11 cells at 316 nM for 16 hours, read-out: CK1α degradation classification
Sequence of CK1α (P48729 whole entry): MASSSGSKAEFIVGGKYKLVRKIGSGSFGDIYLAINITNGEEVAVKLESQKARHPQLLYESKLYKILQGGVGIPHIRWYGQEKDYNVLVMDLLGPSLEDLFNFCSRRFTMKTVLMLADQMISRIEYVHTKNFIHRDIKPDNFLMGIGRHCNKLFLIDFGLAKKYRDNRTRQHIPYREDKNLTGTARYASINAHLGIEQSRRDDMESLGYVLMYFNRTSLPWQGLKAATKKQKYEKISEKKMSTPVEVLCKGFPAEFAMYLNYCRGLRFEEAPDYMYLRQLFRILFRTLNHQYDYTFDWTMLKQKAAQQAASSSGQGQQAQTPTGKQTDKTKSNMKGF
Sequence of CK1α (Q96SW2 whole entry): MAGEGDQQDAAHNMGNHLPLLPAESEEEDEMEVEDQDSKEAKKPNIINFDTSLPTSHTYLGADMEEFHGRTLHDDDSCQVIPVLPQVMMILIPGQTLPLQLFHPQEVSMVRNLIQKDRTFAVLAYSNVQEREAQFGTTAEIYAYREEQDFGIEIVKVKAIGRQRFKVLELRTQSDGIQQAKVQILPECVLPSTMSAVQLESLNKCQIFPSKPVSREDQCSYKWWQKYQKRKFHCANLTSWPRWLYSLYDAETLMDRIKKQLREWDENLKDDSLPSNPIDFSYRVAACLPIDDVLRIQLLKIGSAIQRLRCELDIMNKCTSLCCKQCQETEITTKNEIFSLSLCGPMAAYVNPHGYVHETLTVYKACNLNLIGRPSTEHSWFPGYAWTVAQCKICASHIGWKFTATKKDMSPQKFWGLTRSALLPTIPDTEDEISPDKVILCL
Sequence of CK1α (Q16531 whole entry partner): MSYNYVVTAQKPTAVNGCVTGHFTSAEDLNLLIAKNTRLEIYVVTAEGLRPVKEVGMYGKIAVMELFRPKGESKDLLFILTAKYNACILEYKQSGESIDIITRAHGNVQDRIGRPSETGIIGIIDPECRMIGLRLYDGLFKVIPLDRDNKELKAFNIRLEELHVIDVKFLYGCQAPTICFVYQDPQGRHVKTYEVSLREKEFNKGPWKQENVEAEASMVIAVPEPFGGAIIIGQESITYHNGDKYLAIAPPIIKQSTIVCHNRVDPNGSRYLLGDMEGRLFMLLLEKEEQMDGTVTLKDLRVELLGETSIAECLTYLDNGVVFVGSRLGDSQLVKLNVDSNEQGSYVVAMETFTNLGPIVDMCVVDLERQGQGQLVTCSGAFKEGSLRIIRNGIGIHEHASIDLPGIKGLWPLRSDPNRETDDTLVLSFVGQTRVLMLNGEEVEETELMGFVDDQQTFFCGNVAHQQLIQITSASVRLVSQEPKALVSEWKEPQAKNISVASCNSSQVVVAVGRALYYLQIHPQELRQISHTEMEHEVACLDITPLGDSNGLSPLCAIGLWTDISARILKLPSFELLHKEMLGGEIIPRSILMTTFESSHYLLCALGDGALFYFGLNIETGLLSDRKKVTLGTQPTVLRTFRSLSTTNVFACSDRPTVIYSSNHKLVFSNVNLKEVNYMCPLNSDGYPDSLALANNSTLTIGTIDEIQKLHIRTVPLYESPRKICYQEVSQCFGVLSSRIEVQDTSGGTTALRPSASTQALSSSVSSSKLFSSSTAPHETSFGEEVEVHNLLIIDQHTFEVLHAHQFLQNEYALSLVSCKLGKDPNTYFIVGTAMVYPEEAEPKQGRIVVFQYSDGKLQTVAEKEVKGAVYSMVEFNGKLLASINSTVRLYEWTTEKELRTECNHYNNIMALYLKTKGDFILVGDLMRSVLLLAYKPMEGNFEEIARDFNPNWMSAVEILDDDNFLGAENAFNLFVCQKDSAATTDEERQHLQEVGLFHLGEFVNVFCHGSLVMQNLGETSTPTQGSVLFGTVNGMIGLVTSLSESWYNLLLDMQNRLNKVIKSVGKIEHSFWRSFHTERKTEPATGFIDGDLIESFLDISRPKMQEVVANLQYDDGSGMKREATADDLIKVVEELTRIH
Experimental: MV-4-11 cells were obtained from ATCC and grown in IMDM supplemented with 10% FBS. The cells were maintained at 37° C. under 5% CO2.
Compounds of the present disclosure were added to cells (final DMSO concentration of 0.5%) and incubated for 16 hours. CK1α level was determined in MV4-11 cells using flow cytometry (Luminex, Guava EasyCyte Plus). Briefly, cells were prepared with sequential 10% formalin and 70% methanol fixation. […] GuavaSoft Incyte software was used to analyse the flow cytometry data. Protein levels relative to DMSO are calculated for CK1α.
The efficacy of CK1α degradation of other part of compounds of the present disclosure was determined by treating MV4-11 cells at […] (Final DMSO concentration of 0.5%) for 16 hours. Protein levels relative to DMSO are calculated for CK1α.
Protein levels relative to DMSO are calculated for CK1α.

[1] = MV4-11, IC50 class, MV-4-11 cells, RealTime-Glo after 44 hrs of treatment (TABLE 3)

Row | IC50 (MV-4-11 cells; [1]) [µM] | Dmax at 0.316 µM (CK1α) [%] | Structure (SMILES) | IC50 (MV-4-11 cells; MV4-11, 44 h) [µM]
1 | < 0.1 | > 75 | CCCCCN(c1cccc2c1CN(C1CCC(=O)NC1=O)C2=O)[C@H]1CC[C@H](C(N)=O)CC1 (stereo partly drawn) [Compound 305, (1R,4R)-4-((2-(2,6-dioxopiperidin-3-yl)-1-oxoisoindolin-4-yl)(pentyl)amino)cyclohexane-1-carboxamide] | 
2 | 0.1 to 1 | > 75 | CCCCCN(c1cccc2c1CN(C1CCC(=O)NC1=O)C2=O)[C@H]1CC[C@H](C(=O)NC)CC1 (stereo partly drawn) [Compound 306, (1R,4R)-4-((2-(2,6-dioxopiperidin-3-yl)-1-oxoisoindolin-4-yl)(pentyl)amino)-N-methylcyclohexane-1-carboxamide] | 
3 | < 0.1 | > 75 | CCCCCN(c1cccc2c1CN(C1CCC(=O)NC1=O)C2=O)[C@H]1CC[C@@H](C(N)=O)CC1 (stereo partly drawn) [Compound 307, (1S,4S)-4-((2-(2,6-dioxopiperidin-3-yl)-1-oxoisoindolin-4-yl)(pentyl)amino)cyclohexane-1-carboxamide] | 
4 | < 0.1 | > 75 | CCCCCN(c1cccc2c1CN(C1CCC(=O)NC1=O)C2=O)[C@H]1CC[C@@H](C(=O)NC)CC1 (stereo partly drawn) [Compound 308, (1S,4S)-4-((2-(2,6-dioxopiperidin-3-yl)-1-oxoisoindolin-4-yl)(pentyl)amino)-N-methylcyclohexane-1-carboxamide] | 
5 | < 0.1 | > 75 | CCCCCN(c1cccc2c1CN(C1CCC(=O)NC1=O)C2=O)[C@H]1CC[C@H](NCC)CC1 (stereo partly shown) [Compound 309, 3-(4-(((1r,4r)-4-(ethylamino)cyclohexyl)(pentyl)amino)-1-oxoisoindolin-2-yl)piperidine-2,6-dione, HCl] | 
6 | < 0.1 | 50 to 75 | CCCCCN(c1cccc2c1CN(C1CCC(=O)NC1=O)C2=O)[C@H]1CC[C@H](NC(C)C)CC1 (stereo partly shown) [Compound 310, 3-(4-(((1r,4r)-4-(isopropylamino)cyclohexyl)(pentyl)amino)-1-oxoisoindolin-2-yl)piperidine-2,6-dione, HCl] | 
7 | < 0.1 | > 75 | CCCCCN(c1cccc2c1CN(C1CCC(=O)NC1=O)C2=O)[C@H]1CC[C@H](NCC(C)C)CC1 (stereo partly shown) [Compound 311, 3-(4-(((1r,4r)-4-(isobutylamino)cyclohexyl)(pentyl)amino)-1-oxoisoindolin-2-yl)piperidine-2,6-dione, HCl] | 
8 | < 0.1 | > 75 | CCCCCN(c1cccc2c1CN(C1CCC(=O)NC1=O)C2=O)[C@H]1CC[C@H](NCCC)CC1 (stereo partly shown) [Compound 312, 3-(1-oxo-4-(pentyl((1r,4r)-4-(propylamino)cyclohexyl)amino)isoindolin-2-yl)piperidine-2,6-dione, HCl] | 
9 | < 0.1 | > 75 | CCCCCN(c1cccc2c1CN(C1CCC(=O)NC1=O)C2=O)[C@H]1CC[C@H](NCC2CC2)CC1 (stereo partly drawn) [Compound 313, 3-(4-(((1R,4R)-4-((cyclopropylmethyl)amino)cyclohexyl)(pentyl)amino)-1-oxoisoindolin-2-yl)piperidine-2,6-dione hydrochloride] | 
10 | < 0.1 | > 75 | CCCCCN(c1cccc2c1CN(C1CCC(=O)NC1=O)C2=O)[C@@H]1CC[C@@H](CN)C1 (stereo partly drawn) [Compound 325, 3-(4-(((1R,3R)-3-(aminomethyl)cyclopentyl)(pentyl)amino)-1-oxoisoindolin-2-yl)piperidine-2,6-dione HCl salt] | 
11 | < 0.1 | > 75 | NC[C@@H]1CC[C@@H](N(CCC2CC2)c2cccc3c2CN(C2CCC(=O)NC2=O)C3=O)C1 (stereo partly drawn) [Compound 325A, 3-(4-(((1R,3R)-3-(aminomethyl)cyclopentyl)(2-cyclopropylethyl)amino)-1-oxoisoindolin-2-yl)piperidine-2,6-dione, HCl] | 
12 | < 0.1 | > 75 | CCCCCN(c1cccc2c1CN(C1CCC(=O)NC1=O)C2=O)[C@@H]1CC[C@H](CN)C1 (stereo partly drawn) [Compound 326, 3-(4-(((1R,3S)-3-(aminomethyl)cyclopentyl)(pentyl)amino)-1-oxoisoindolin-2-yl)piperidine-2,6-dione, Formic Acid salt] | 
13 | < 0.1 | > 75 | NC[C@H]1CC[C@@H](N(CCC2CC2)c2cccc3c2CN(C2CCC(=O)NC2=O)C3=O)C1 (stereo partly drawn) [Compound 326A, 3-(4-(((1R,3S)-3-(aminomethyl)cyclopentyl)(2-cyclopropylethyl)amino)-1-oxoisoindolin-2-yl)piperidine-2,6-dione, HCl] | 
14 | 0.1 to 1 | 50 to 75 | CCCCCN(c1cccc2c1CN(C1CCC(=O)NC1=O)C2=O)[C@H]1CCC[C@H](CN)C1 (stereo partly drawn) [Compound 329, 3-(4-(((1S,3S)-3-(aminomethyl)cyclohexyl)(pentyl)amino)-1-oxoisoindolin-2-yl)piperidine-2,6-dione, HCl] | 
15 | < 0.1 | > 75 | CCCCCN(c1cccc2c1CN(C1CCC(=O)NC1=O)C2=O)[C@H]1CCC[C@@H](CN)C1 (stereo partly drawn) [Compound 330, 3-(4-(((1S,3R)-3-(aminomethyl)cyclohexyl)(pentyl)amino)-1-oxoisoindolin-2-yl)piperidine-2,6-dione, HCl] | 
16 | 0.1 to 1 | 50 to 75 | O=C1CCC(N2Cc3c(cccc3N(CCCC(F)(F)F)[C@H]3CC[C@H](NC4CC(F)(F)C4)CC3)C2=O)C(=O)N1 (stereo partly shown) [Compound 512, 3-(4-(((1r,4r)-4-((3,3-difluorocyclobutyl)amino)cyclohexyl)(4,4,4-trifluorobutyl)amino)-1-oxoisoindolin-2-yl)piperidine-2,6-dione] | 
17 | 0.1 to 1 | > 75 | O=C1CCC(N2Cc3c(cccc3N(CCCC(F)(F)F)[C@H]3CC[C@H](NCCC(F)(F)F)CC3)C2=O)C(=O)N1 (stereo partly shown) [Compound 513, 3-(1-oxo-4-((4,4,4-trifluorobutyl)((1r,4r)-4-((3,3,3-trifluoropropyl)amino)cyclohexyl)amino)isoindolin-2-yl)piperidine-2,6-dione] | 
18 | 0.1 to 1 | 50 to 75 | O=C1CCC(N2Cc3c(cccc3N(CCCC(F)(F)F)[C@H]3CC[C@H](NC4COC4)CC3)C2=O)C(=O)N1 (stereo partly shown) [Compound 514, 3-(1-oxo-4-{[(1r,4r)-4-(oxetan-3-ylamino)cyclohexyl](4,4,4-trifluorobutyl)amino}-3H-isoindol-2-yl)piperidine-2,6-dione] | 
19 | > 1 | 50 to 75 | O=C1CCC(N2Cc3c(cccc3N(CCC3CC3)[C@H]3CC[C@H](NC4CC(F)(F)C4)CC3)C2=O)C(=O)N1 (stereo partly shown) [Compound 515, 3-(4-((2-cyclopropylethyl)((1r,4r)-4-((3,3-difluorocyclobutyl)amino)cyclohexyl)amino)-1-oxoisoindolin-2-yl)piperidine-2,6-dione formate] | 
20 | 0.1 to 1 | 50 to 75 | O=C1CCC(N2Cc3c(cccc3N(CCC3CC3)[C@H]3CC[C@@H](NC4CC(F)(F)C4)CC3)C2=O)C(=O)N1 (stereo partly shown) [Compound 515A, 3-(4-((2-cyclopropylethyl)((1s,4s)-4-((3,3-difluorocyclobutyl)amino)cyclohexyl)amino)-1-oxoisoindolin-2-yl)piperidine-2,6-dione formate] | 
21 | < 0.1 | > 75 | O=C1CCC(N2Cc3c(cccc3N(CCC3CC3)[C@H]3CC[C@H](NCCC(F)(F)F)CC3)C2=O)C(=O)N1 (stereo partly shown) [Compound 516, 3-{4-[(2-cyclopropylethyl)[(1r,4r)-4-[(3,3,3-trifluoropropyl)amino]cyclohexyl]amino]-1-oxo-3H-isoindol-2-yl}piperidine-2,6-dione] | 
22 | < 0.1 | > 75 | O=C1CCC(N2Cc3c(cccc3N(CCC3CC3)[C@H]3CC[C@H](NC4COC4)CC3)C2=O)C(=O)N1 (stereo partly shown) [Compound 517, 3-(4-((2-cyclopropylethyl)((1r,4r)-4-(oxetan-3-ylamino)cyclohexyl)amino)-1-oxoisoindolin-2-yl)piperidine-2,6-dione] | 
23 | 0.1 to 1 | > 75 | NCC(F)(F)CCN(CCC1CC1)c1cccc2c1CN(C1CCC(=O)NC1=O)C2=O (stereo not shown) [Compound 518, 3-(4-((4-amino-3,3-difluorobutyl)(2-cyclopropylethyl)amino)-1-oxoisoindolin-2-yl)piperidine-2,6-dione] | 
24 | < 0.1 | > 75 | N[C@@H]1CC[C@@H](N(CCC2CC2)c2cccc3c2CN(C2CCC(=O)NC2=O)C3=O)C[C@H]1F (stereo partly drawn) [Compound 521, 3-(4-(((1R,3R,4R)-4-amino-3-fluorocyclohexyl)(2-cyclopropylethyl)amino)-1-oxoisoindolin-2-yl)piperidine-2,6-dione; formic acid] | 
25 | < 0.1 | > 75 | NC[C@H]1CC[C@@H](N(CCC2CC2)c2cccc3c2CN(C2CCC(=O)NC2=O)C3=O)CO1 (stereo partly drawn) [Compound 522, 3-(4-{[(3R,6R)-6-(aminomethyl)oxan-3-yl](2-cyclopropylethyl)amino}-1-oxo-3H-isoindol-2-yl)piperidine-2,6-dione] | 

Row | Structure (SMILES) | IC50 (MV-4-11 cells; [1]) [µM] | Dmax at 0.316 µM (CK1α) [%] | IC50 (MV-4-11 cells; MV4-11, 44 h) [µM]
26 | NCC(CCN(CCC1CC1)c1cccc2c1CN(C1CCC(=O)NC1=O)C2=O)C(F)(F)F (stereo not shown) [Compound 519, 3-(4-{[4-amino-3-(trifluoromethyl)butyl](2-cyclopropylethyl)amino}-1-oxo-3H-isoindol-2-yl)piperidine-2,6-dione] |  | 50 to 75 | 0.1 to 1
